Entries after “also recorded” stand apart in the source; their conditions may differ.
Legend:
Format in all cases: cell-based, human
[1] = system: LNCaP cell line; test: Alamar Blue cell viability, LNCaP; details: 72 h exposure
Text: (§1) Five different prostate cell lines, including normal cell line PNT2-C2 (Merck), benign prostatic hyperplasia cell line BPH1 (gift from Simon W. Hayward, Evanston, IL, USA), and cancer cell lines including PC-3 (derived from prostate cancer bone metastasis) (ATCC), LNCaP (derived from prostate cancer lymph node metastasis) (ATCC), and P4E6 (derived from localized prostate cancer) (derived in York and available from European Collection of Authenticated Cell Cultures ECACC), as well as two primary malignant cell lines, H796/19 and H798/19 (both Gleason 7 grade cancers) (obtained in York with ethical permission, REC ref 07/H1304/121) were used in the study. Culturing of commercially available cell lines and processing and culturing of primary cells were carried out as previously described. Primary cells were typically used at a passage <5 since they have finite growth and the intention is to maintain them as close to the original tumor as possible.
(§2) AlamarBlue quantitatively measures cell viability since actively metabolizing cells can reduce its active ingredient resazurin to a fluorescent molecule (resorufin) which can be subsequently analyzed on a plate reader. Cells were plated in 96 well plates at a density of 5000 cells/well and left to adhere overnight in 200 μL media. The following day cells were treated with 9 different concentrations of the test drugs in triplicate, ranging from 10^−5 M to 10^−13 M. After 72 h exposure 20 μL of AlamarBlue reagent (diluted 1:10 in the corresponding media for each cell line) was added to each well and incubated at 37 °C for 2 h. Fluorescence intensity was determined using a microplate reader (Polarstar Optima, BMG Labtech) at excitation/emission values 73 of 544/590 nm. EC50 values were calculated using the software GraphPad Prism Version 6 (San Diego, CA, USA).

[2] = system: BPH1 benign prostatic hyperplasia cell line; test: Alamar Blue cell viability, BPH1
Text: as §1, §2

[3] = system: PNT2-C2 normal prostate epithelial cell line; test: Alamar Blue cell viability, PNT2-C2; details: 72 h exposure
Text: as §1, §2

[4] = system: PC3 cell line; test: Colony-forming assay, PC3; details: 72 h exposure at EC50, EC50×2, EC50×5
Procedure: PNT2-C2, BPH1 and PC3 cell lines were plated in 12-well plates with a density of 4 × 10^4 cells/well and left to adhere overnight in 1.00 mL media. The following day cells were treated with 3 different concentrations of the test drugs, based on the EC50 values in cell viability (EC50, EC50×2, EC50×5). After 72 h of exposure, cells were counted and plated into 12 well plates in triplicate with a density of 100 cells/well. At day 8, cells were stained with crystal violet (1% (w/v) crystal violet, 10% (v/v) ethanol in PBS). Colonies consisting of >32 cells were counted (representative of 5 population doublings).

[5] = system: P4E6 cell line; test: Alamar Blue cell viability, P4E6; details: for EC50: 72 h exposure, Alamar Blue
Text: as §1, §2

[6] = system: PC3 cell line; test: Alamar Blue cell viability, PC3; details: for EC50: 72 h exposure, Alamar Blue
Text: as §1, §2

[7] = system: ALDH1A1 gene expression in primary prostate epithelial cell cultures; test: qPCR ALDH1A1 gene expression after atRA treatment; details: atRA 100 nM, 72 hours; 1xBPH, 1xBPH-PIN, 2x PCa primary cultures; no statistical test
Procedure: (§3) RNA extraction was carried out using the RNeasy Mini Kit (Qiagen, Hilden, Germany). The concentration and quality of the eluted RNA were determined using a NanodropTM2000 (Thermo Fisher Scientific, Waltham, MA, USA) spectrophotometer and measuring the 260/280 ratio. Total RNA of 50–2000 ng was reverse transcribed into single-stranded cDNA using the High Capacity cDNA Reverse Transcription Kit (Thermo Fisher Scientific, Waltham, MA, USA). Once the reaction finished, samples were purified using the QIAquick PCR Purification Kit (Qiagen). The concentration and quality of the cDNA was measured by using the NanodropTM2000 spectrophotometer. qPCR was carried out in 25 μL total PCR reaction using the TaqMan Universal PCR Master Mix (Applied Biosystems, Thermo Fisher Scientific, Waltham, MA, USA). The PCR reaction consisted of 12.5 μL of 2× master mix, 1.25 μL of 20× TaqMan Gene Expression Assay Mix (Supplementary Table S1), and 11.25 μL cDNA diluted in dH2O. A 96-well MicroAmp Optical plate (Applied Biosystems) was used and all reactions were run in triplicates. Primers used were obtained from TaqMan Gene Expression Assays (Thermo Fisher Scientific, Waltham, MA, USA). […] The gene expression level relative to internal control RPLP0 was calculated using the formula 2^−∆CT and the fold change in gene expression was worked out using the 2^−∆∆CT method. […]

[8] = system: ALDH1A3 gene expression in primary prostate epithelial cell cultures; test: qPCR ALDH1A3 gene expression after atRA treatment; details: atRA 100 nM, 72 hours; 1xBPH, 1xBPH-PIN, 2x PCa primary cultures; no statistical test
Procedure: as §3

EC50 [1] [nM]	EC50 [6] [nM]	SMILES	EC50 ([2]; 72 h exposure) [nM]	EC50 [3] [nM]	EC50 [5] [nM]	further results
7180	–	N#Cc1cccc(-c2ccc3nc(-c4ccccc4)cn3c2)c1 [Compound 3d]	351	1720	440	selectivity of PC3 colony forming inhibition versus PNT2-C2 or BPH-1 [4]: selectively inhibited PC3 colony forming more strongly than PNT2-C2 or BPH-1; also recorded: selective inhibition of PC3 colony formation
323	322	Clc1ccc(-c2ccc3nc(-c4ccccc4)cn3c2)cc1 [Compound 3c]	416	325	33.4	–
–	–	Fc1ccc(-c2ccc3nc(-c4ccccc4)cn3c2)cc1 [Compound 3b, 6-(4-fluorophenyl)-2-phenylimidazo [1,2-a]pyridine]	–	–	–	EC50 ([6]; Homo sapiens, PC-3): 70.9 nM; antiproliferative activity against PC3 ([6]; result in words): antiproliferative activity in the nanomolar range; also recorded: nanomolar efficacy; EC50 ([1]; Homo sapiens, LNCaP): 240 nM; EC50 ([2]; Homo sapiens, BPH-1, 72 h exposure): 41.5 nM; EC50 ([3]; Homo sapiens, Epithelial cell): 217 nM; colony-forming efficiency PC3 [4]: inhibitory efficacy against PC3 colony-forming efficiency; EC50 ([5]; Homo sapiens): 4.04 nM; antiproliferative activity against P4E6 ([5]; result in words): antiproliferative activity in the nanomolar range; also recorded: nanomolar efficacy
315	239	c1ccc(-c2ccc3nc(-c4ccccc4)cn3c2)cc1 [Compound 3a]	113	423	60.7	–
–	–	CC1=C(/C=C/C(C)=C/C=C/C(C)=C/C(=O)O)C(C)(C)CCC1 [atRA]	–	–	–	gene expression for ALDH1A1 [7]: no apparent effect; gene expression for ALDH1A3 [8]: increase

Reference: publication PMC7761903, “Aldehyde Dehydrogenases and Prostate Cancer: Shedding Light on Isoform Distribution to Reveal Druggable Target” (Biomedicines, 2020)
